Experimental findings from patent US6596711B1, “(Aminopropyl)methylphosphinic acids” (AstraZeneca AB, priority 1999, dated 2003) are described below.

Usually melting point stands for the temperature of the solid-liquid transition.

As to `CP(=O)(O)CC(F)CN` (stereo not shown), the melting point fell in the range of 78 to 84 °C.
